Assay: Permeation of solutes through the composite membrane, side-by-side diffusion cell
Type: physicochemical
Conditions: for P(45° C.)/P(20° C.) in 0.0001M KCl: permeability ratio across composite membrane, 45° C. vs 20° C.
Description: Permeation of solutes of various molecular sizes through the membrane was determined using a side-by-side diffusion cell. The solution in the receptor cell was pumped to a UV cell with a peristaltic pump. The amount of solute permeated was assayed by a diode array spectrophotometer (HP 8452A). The pH of the medium was adjusted either by addition of sodium hydroxide and hydrochloric acid.

permeability at 45° C. relative to that at 20° C. (composite membrane, in the presence of CaCl2 (3.33×10^−2 mM, FIG. 7), calculated from slopes)	P(45° C.)/P(20° C.) in 0.0001M KCl	permeation across the membrane into water at 25° C. (water, 25° C. compared with 40° C. (FIG. 6))	ratio of the permeability at 40° C. to that at 25° C. (composite membrane, DDI water (FIG. 5))	Molecule	penetration through the membrane (at the studied temperatures)
about 11 fold	11.0	almost negligible permeation	–	Vitamin B12	–
–	2.20	–	about 2.6 times	CC(=O)Nc1ccc(O)cc1 [Acetaminophen]	–

Molecule	permeability at 45° C. relative to that at 20° C. (composite membrane, in the presence of CaCl2 (3.33×10^−2 mM, FIG. 7), calculated from slopes)	P(45° C.)/P(20° C.) in 0.0001M KCl	permeation across the membrane into water at 25° C. (water, 25° C. compared with 40° C. (FIG. 6))	ratio of the permeability at 40° C. to that at 25° C. (composite membrane, DDI water (FIG. 5))	penetration through the membrane (at the studied temperatures)
Chymotrypsin	–	No permeation at both	–	–	could not penetrate through the membrane

Reference: patent US6565872B2, “Polymeric system for drug delivery and solute separation” (priority 1999, dated 2003)
